Drawing on patent US6949522B2, “β-2′- or 3′-halonucleosides” (Pharmasset, Inc., priority 2001, dated 2005), this text covers IC50 and EC50 for two molecules.

A short description of data set [1]: in vitro. The settings on record: African green monkey, Cytotoxicity (IC50) Vero. Type of data set: cell-based, African green monkey.
Data set [2] in a line: in vitro. Type of data set: cell-based, human. The settings on record: human. The procedure, abridged: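 Test drug applied as ten-fold serial dilutions to CEM, Vero and PHA-stimulated human PBM cells, all uninfected. After incubation, MTT added overnight, formazan solubilized 5 h and read at 570 nm as a toxicity measure.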
Data set [3] relates to HIV-1LAI. To be noted: human PBM cells; reported in Org. Lett. 2002; read-out: anti-HIV activity EC50; cited from earlier work.

Each structure is given as a SMILES string.

One may read the IC50 as the concentration that inhibits the measured activity by half. For orientation: EC50 means the midpoint of the concentration-response curve.

`Cc1cn([C@H]2C[C@H](N=[N+]=[N-])[C@@H](CO)O2)c(=O)[nH]c1=O` [AZT, 3′-azido-3′-deoxythymidine, reference compound] came in with an IC50 at 3 days in data set [1] of 28 µM. The molecule also came in with an IC50 at 5 days in data set [2] above 100 µM.

As to `Nc1ccn([C@H]2S[C@@H](CO)C=C2F)c(=O)n1` [Compound L-17, (+)-1-[(1S,4R)-2,3-dideoxy-2,3-didehydro-2-fluoro-4-thio-β-L-ribofuranosyl]-cytosine], the EC50 in data set [3] was 0.12 µM.
